Target: T1, c-Met kinase (recombinant c-Met) (Homo sapiens, UniProt P08581)
T1 construct: 0.27 nM recombinant c-Met
Test: In vitro kinase assay I (homogeneous time-resolved fluorescence tyrosine kinase assay)
Format: biochemical
Summary of the method: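 Biotinylated peptide (0.5 μM) phosphorylated by 0.2 nM recombinant c-Met with 50 μM MgATP, 60 min at room temperature, pH 7.4, 5% DMSO. EDTA stop; HTRF read with Eu-anti-phosphotyrosine antibody and streptavidin-APC. IC50 from 4-parameter logistic fit.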

T1 sequence (P08581 25-1390): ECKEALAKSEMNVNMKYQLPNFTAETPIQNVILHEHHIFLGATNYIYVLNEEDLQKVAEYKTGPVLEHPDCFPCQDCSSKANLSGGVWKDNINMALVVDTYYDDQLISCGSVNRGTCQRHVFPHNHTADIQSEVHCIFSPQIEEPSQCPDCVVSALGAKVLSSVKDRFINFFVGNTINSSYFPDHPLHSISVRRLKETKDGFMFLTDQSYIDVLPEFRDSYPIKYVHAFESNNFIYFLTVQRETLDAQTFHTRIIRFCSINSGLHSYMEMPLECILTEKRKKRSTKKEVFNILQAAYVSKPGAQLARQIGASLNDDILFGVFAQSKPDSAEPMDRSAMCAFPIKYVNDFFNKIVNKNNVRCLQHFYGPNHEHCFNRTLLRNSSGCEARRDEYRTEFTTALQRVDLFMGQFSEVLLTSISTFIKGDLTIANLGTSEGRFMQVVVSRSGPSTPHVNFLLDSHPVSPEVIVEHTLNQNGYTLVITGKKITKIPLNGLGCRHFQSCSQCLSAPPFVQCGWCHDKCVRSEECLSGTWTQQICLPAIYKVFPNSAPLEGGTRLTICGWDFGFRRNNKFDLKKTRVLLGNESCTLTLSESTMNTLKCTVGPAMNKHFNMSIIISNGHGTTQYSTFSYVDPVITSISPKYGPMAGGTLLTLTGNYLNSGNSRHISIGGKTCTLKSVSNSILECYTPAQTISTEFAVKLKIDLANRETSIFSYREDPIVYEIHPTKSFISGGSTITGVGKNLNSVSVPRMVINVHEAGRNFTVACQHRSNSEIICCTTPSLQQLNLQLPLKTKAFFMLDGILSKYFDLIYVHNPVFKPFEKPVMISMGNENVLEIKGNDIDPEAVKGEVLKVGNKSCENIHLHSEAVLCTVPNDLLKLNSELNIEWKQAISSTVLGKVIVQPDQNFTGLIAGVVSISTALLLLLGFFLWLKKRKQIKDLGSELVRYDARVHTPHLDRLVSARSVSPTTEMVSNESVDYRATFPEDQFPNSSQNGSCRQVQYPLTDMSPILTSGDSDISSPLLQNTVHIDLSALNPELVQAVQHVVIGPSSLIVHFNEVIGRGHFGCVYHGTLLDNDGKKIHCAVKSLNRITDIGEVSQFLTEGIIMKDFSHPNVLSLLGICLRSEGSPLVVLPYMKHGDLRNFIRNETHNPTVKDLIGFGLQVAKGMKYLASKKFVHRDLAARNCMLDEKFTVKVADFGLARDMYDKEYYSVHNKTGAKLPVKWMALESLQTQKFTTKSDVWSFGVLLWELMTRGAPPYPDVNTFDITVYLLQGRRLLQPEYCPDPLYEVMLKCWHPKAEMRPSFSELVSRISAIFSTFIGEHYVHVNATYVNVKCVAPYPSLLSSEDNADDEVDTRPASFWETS

Compound | IC50
Cc1ccc2c(Cc3nn(-c4cnn(C)c4)ccc3=O)cccc2n1 [Example 44, 1-(1-methyl-1H-pyrazol-4-yl)-3-[(2-methylquinolin-5-yl)methyl]pyridazin-4(1H)-one] | 1000 to 3000 nM
Cn1cc(-n2ccc(=O)c(Cc3cccc4c3CNC4=O)n2)cn1 [Example 45, 4-{[1-(1-methyl-1H-pyrazol-4-yl)-4-oxo-1,4-dihydropyridazin-3-yl]methyl}-2,3-dihydro-1H-isoindol-1-one] | 1000 to 3000 nM
Cn1cc(-n2ccc(=O)c(Cc3ccc4nccn4c3)n2)cn1 [Example 46, 3-(imidazo[1,2-a]pyridin-6-ylmethyl)-1-(1-methyl-1H-pyrazol-4-yl)pyridazin-4(1H)-one] | 1000 to 3000 nM
CCOC(=O)c1cccc(Cc2nn(-c3cnn(C)c3)ccc2=O)c1F [Example 47, ethyl 2-fluoro-3-{[1-(1-methyl-1H-pyrazol-4-yl)-4-oxo-1,4-dihydropyridazin-3-yl]methyl}benzoate] | 100 to 1000 nM
Cn1cc(-n2ccc(=O)c(Cc3cccc(CC(N)=O)c3)n2)cn1 [Example 48, 2-(3-{[1-(1-methyl-1H-pyrazol-4-yl)-4-oxo-1,4-dihydropyridazin-3-yl]methyl}phenyl)acetamide] | 1000 to 3000 nM
Cn1cc(-n2ccc(=O)c(Cc3ccc4nn(C)cc4c3)n2)cn1 [Example 49, 3-[(2-methyl-2H-indazol-5-yl)methyl]-1-(1-methyl-1H-pyrazol-4-yl)pyridazin-4(1H)-one] | 1000 to 3000 nM
Cn1cc(-n2ccc(=O)c(Cc3cccc4[nH]ncc34)n2)cn1 [Example 50, 3-(1H-indazol-4-ylmethyl)-1-(1-methyl-1H-pyrazol-4-yl)pyridazin-4(1H)-one] | 1000 to 3000 nM
Cn1cc(-n2ccc(=O)c(Cc3ccc4occc4c3)n2)cn1 [Example 51, 3-(1-benzofuran-5-ylmethyl)-1-(1-methyl-1H-pyrazol-4-yl)pyridazin-4(1H)-one] | 1000 to 3000 nM
CCCOC(=O)Nc1cccc(Cc2nn(-c3cnn(C)c3)ccc2=O)c1 [Example 52, propyl (3-{[1-(1-methyl-1H-pyrazol-4-yl)-4-oxo-1,4-dihydropyridazin-3-yl]methyl}phenyl)carbamate] | < 100 nM
CC(C)COC(=O)Nc1cccc(Cc2nn(-c3cnn(C)c3)ccc2=O)c1 [Example 53, 2-methylpropyl (3-{[1-(1-methyl-1H-pyrazol-4-yl)-4-oxo-1,4-dihydropyridazin-3-yl]methyl}phenyl)carbamate] | < 100 nM
COCCOC(=O)Nc1cccc(Cc2nn(-c3cnn(C)c3)ccc2=O)c1 [Example 54, 2-methoxyethyl (3-{[1-(1-methyl-1H-pyrazol-4-yl)-4-oxo-1,4-dihydropyridazin-3-yl]methyl}phenyl)carbamate] | < 100 nM
Cn1cc(-n2ccc(=O)c(Cc3ccc4ncccc4c3)n2)cn1 [Example 55, 1-(1-methyl-1H-pyrazol-4-yl)-3-(quinolin-6-ylmethyl)pyridazin-4(1H)-one] | 100 to 1000 nM
CCCOC(=O)Nc1cccc(Cc2nn(-c3cc(Cl)nc(Cl)c3)ccc2=O)c1 [Example 56, propyl (3-{[1-(2,6-dichloropyridin-4-yl)-4-oxo-1,4-dihydropyridazin-3-yl]methyl}phenyl)carbamate] | < 100 nM
CCCn1cnc(-c2cccc(Cc3nn(-c4cnn(C)c4)ccc3=O)c2)n1 [Example 57, 1-(1-methyl-1H-pyrazol-4-yl)-3-[3-(1-propyl-1H-1,2,4-traizol-3-yl)benzyl]pyridazin-4(1H)-one] | < 100 nM
Cn1cc(-n2ccc(=O)c(Cc3cccc(-c4nnn(C)n4)c3)n2)cn1 [Example 58, 1-(1-methyl-1H-pyrazol-4-yl)-3-[3-(2-methyl-2H-tetrazol-5-yl)benzyl]pyridazin-4(1H)-one] | 100 to 1000 nM
CCOc1cnc2ccc(Cc3nn(-c4cnn(C)c4)ccc3=O)cc2c1 [Example 59, 3-[(3-ethoxyquinolin-6-yl)methyl]-1-(1-methyl-1H-pyrazol-4-yl)pyridazin-4(1H)-one] | 100 to 1000 nM
Cn1cc(-n2ccc(=O)c(Cc3ccc4ncc(OCCN5CCOCC5)cc4c3)n2)cn1 [Example 60, 1-(1-methyl-1H-pyrazol-4-yl)-3-{[3-(2-morpholin-4-ylethoxy)quinolin-6-yl]methyl}pyridazin-4(1H)-one] | 100 to 1000 nM
COCCOc1cnc2ccc(Cc3nn(-c4cnn(C)c4)ccc3=O)cc2c1 [Example 61, 3-{[3-(2-methoxyethoxy)quinolin-6-yl]methyl}-1-(1-methyl-1H-pyrazol-4-yl)pyridazin-4(1H)-one] | 100 to 1000 nM
Cn1cc(-n2ccc(=O)c(Cc3ccc4ncc(OCC5(C)COC5)cc4c3)n2)cn1 [Example 62, 3-({3-[(3-methyloxetan-3-yl)methoxy]quinolin-6-yl}methyl)-1-(1-methyl-1H-pyrazol-4-yl)pyridazin-4(1H)-one] | < 100 nM
CCCOc1cnc2ccc(Cc3nn(-c4cnn(C)c4)ccc3=O)cc2c1 [Example 63, 1-(1-methyl-1H-pyrazol-4-yl)-3-[(3-propoxyquinolin-6-yl)methyl]pyridazin-4(1H)-one] | < 100 nM
CCOc1cnc2ccc(Cc3nn(-c4cc(F)c(F)c(F)c4)ccc3=O)cc2c1 [Example 65, 3-[(3-ethoxyquinolin-6-yl)methyl]-1-(3,4,5-trifluorophenyl)pyridazin-4(1H)-one] | 100 to 1000 nM
COCCn1cnc(-c2cccc(Cc3nn(-c4cnn(C)c4)ccc3=O)c2)n1 [Example 66, 3-{3-[1-(2-methoxyethyl)-1H-1,2,4-triazol-3-yl]benzyl}-1-(1-methyl-1H-pyrazol-4-yl)pyridazin-4(1H)-one] | < 100 nM

More lines, now with the values ahead:

IC50 | Compound
< 100 nM | Cn1cc(-n2ccc(=O)c(Cc3cccc(-c4ncc(OCc5ccccc5)cn4)c3)n2)cn1 [Example 67, 3-{3-[5-(benzyloxy)pyrimidin-2-yl]benzyl}-1-(1-methyl-1H-pyrazol-4-yl)pyridazin-4(1H)-one]
< 100 nM | CC(C)COC(=O)Nc1cccc(Cc2nn(-c3ccc(Br)cc3)ccc2=O)c1 [Example 68, 2-methylpropyl (3-{[1-(4-bromophenyl)-4-oxo-1,4-dihydropyridazin-3-yl]methyl}phenyl)carbamate]
< 100 nM | CC(C)COC(=O)Nc1cccc(Cc2nn(-c3cccc(Br)c3)ccc2=O)c1 [Example 69, 2-methylpropyl (3-{[1-(3-bromophenyl)-4-oxo-1,4-dihydropyridazin-3-yl]methyl}phenyl)carbamate]
< 100 nM | CCn1cc(-n2ccc(=O)c(Cc3cccc(NC(=O)OCCOC)c3)n2)cn1 [Example 70, 2-methoxyethyl (3-{[1-(1-ethyl-1H-pyrazol-4-yl)-4-oxo-1,4-dihydropyridazin-3-yl]methyl}phenyl)carbamate]
< 100 nM | CCn1cc(-n2ccc(=O)c(Cc3cccc(-c4ncc(OCc5ccccc5)cn4)c3)n2)cn1 [Example 71, 3-{3-[5-(benzyloxy)pyrimidin-2-yl]benzyl}-1-(1-ethyl-1H-pyrazol-4-yl)pyridazin-4(1H)-one]
< 100 nM | CCOc1cnc(-c2cccc(Cc3nn(-c4cccc(C#N)c4)ccc3=O)c2)nc1 [Example 72, 3-[3-[3-(5-ethoxypyrimidin-2-yl)benzyl]-4-oxopyridazin-1(4H)-yl]benzonitrile]
< 100 nM | COCCOC(=O)Nc1cccc(Cc2nn(-c3cc(F)cc(C#N)c3)ccc2=O)c1 [Example 73, 2-methoxyethyl (3-{[1-(3-cyano-5-fluorophenyl)-4-oxo-1,4-dihydropyridazin-3-yl]methyl}phenyl)carbamate]
100 to 1000 nM | Cn1cc(-n2ccc(=O)c(Cc3ccc4cnccc4c3)n2)cn1 [Example 74, 3-(isoquinolin-6-ylmethyl)-1-(1-methyl-1H-pyrazol-4-yl)pyridazin-4(1H)-one]
1000 to 3000 nM | Cc1nnc(-c2cccc(Cc3nn(-c4cnn(C)c4)ccc3=O)c2)s1 [Example 75, 1-(1-methyl-1H-pyrazol-4-yl)-3-[3-(5-methyl-1,3,4-thiadiazol-2-yl)benzyl]pyridazin-4(1H)-one]
< 100 nM | CCCCn1cnc(-c2cccc(Cc3nn(-c4cnn(C)c4)ccc3=O)c2)n1 [Example 76, 3-[3-(1-butyl-1H-1,2,4-triazol-3-yl)benzyl]-1-(1-methyl-1H-pyrazol-4-yl)pyridazin-4(1H)-one]
< 100 nM | COCCCn1cnc(-c2cccc(Cc3nn(-c4cnn(C)c4)ccc3=O)c2)n1 [Example 77, 3-{3-[1-(3-methoxypropyl)-1H-1,2,4-triazol-3-yl]benzyl}-1-(1-methyl-1H-pyrazol-4-yl)pyridazin-4(1H)-one]
< 100 nM | CC(C)CCn1cnc(-c2cccc(Cc3nn(-c4cnn(C)c4)ccc3=O)c2)n1 [Example 78, 3-{3-[1-(3-methylbutyl)-1H-1,2,4-triazol-3-yl]benzyl}-1-(1-methyl-1H-pyrazol-4-yl)pyridazin-4(1H)-one]
< 100 nM | CCCn1cnc(-c2cccc(Cc3nn(-c4ccc(F)c(F)c4)ccc3=O)c2)n1 [Example 80, 1-(3,4-difluorophenyl)-3-[3-(1-propyl-1H-1,2,4-triazol-3-yl)benzyl]pyridazin-4(1H)-one]
< 100 nM | CCCn1cnc(-c2cccc(Cc3nn(-c4cc(F)cc(C#N)c4)ccc3=O)c2)n1 [Example 81, 3-fluoro-5-{4-oxo-3-[3-(1-propyl-1H-1,2,4-triazol-3-yl)benzyl]pyridazin-1(4H)-yl}benzonitrile]
< 100 nM | CCn1cnc(-c2cccc(Cc3nn(-c4ccc(F)c(F)c4)ccc3=O)c2)n1 [Example 82, 1-(3,4-difluorophenyl)-3-[3-(1-ethyl-1H-1,2,4-triazol-3-yl)benzyl]pyridazin-4(1H)-one]
< 100 nM | CCn1cnc(-c2cccc(Cc3nn(-c4cc(F)cc(C#N)c4)ccc3=O)c2)n1 [Example 83, 3-{3-[3-(1-ethyl-1H-1,2,4-triazol-3-yl)benzyl]-4-oxopyridazin-1(4H)-yl}-5-fluorobenzonitrile]
< 100 nM | CCn1cnc(-c2cccc(Cc3nn(-c4cccc(C#N)c4)ccc3=O)c2)n1 [Example 84, 3-{3-[3-(1-Ethyl-1H-1,2,4-triazol-3-yl)benzyl]-4-oxopyridazin-1(4H)-yl}benzonitrile]
